Results taken from US11629105B2, “Plant treatment composition” (Croda International Plc, priority 2016, dated 2023).
Read-outs that look alike come from different tables or passages of the source. One block for each compound: values may come before it.

Key:
[1] = Solvent screening for ability to dissolve diphenyl urea (DPU); type: physicochemical; conditions: solubility of diphenyl urea (DPU) in the named solvent
[2] = Stability of emulsion of urea derivative solution with ATLOX 4991; type: physicochemical
[3] = Experimental: The solubility of other substituted ureas and substituted thioureas was tested in this solvent.
[4] = Water solubility of solvents (OECD 105); type: physicochemical; conditions: solvent in water; for solubility: water, thermodynamic from solid
[5] = 2% w/w urea derivative in AGNIQUE AMD10

Structure (SMILES): CCCCOC(C)COC(C)COC(C)CO (stereo not drawn) [DOWANOL ™ TPnB, Tripropylene glycol n-Butyl ether]
- DPU Solubility comments [1]: Effectively insoluble

Structure (SMILES): NC(=O)Nc1ccccc1 [N-phenyl urea]
- Emulsion with ATLOX 4991 stable? (4 wks ambient) [2]: Yes
- Fully Soluble in AGNIQUE AMD10? (2% w/w urea derivative) [3]: Yes

Structure (SMILES): CCN(C(=O)N(CC)c1ccccc1)c1ccccc1 [1,3-diethyl-1,3-diphenyl urea]
- Emulsion with ATLOX 4991 stable? (4 wks ambient) [2]: Yes
- Fully Soluble in AGNIQUE AMD10? (2% w/w urea derivative) [3, 5]: Yes

Structure (SMILES): CC(O)COc1ccccc1 (stereo not drawn) [DOWANOL ™ PPh, 1-phenoxypropan-2-ol]
- DPU Solubility comments [1]: Effectively insoluble

Structure (SMILES): O=C1NCCCN1 [N,N′-trimethylene urea]
- Fully Soluble in AGNIQUE AMD10? (2% w/w urea derivative) [3]: No
- solubility in AGNIQUE AMD10 [3]: < 2 % w/w

Structure (SMILES): O=C(NC1CCCCC1)NC1CCCCC1 [N,N′-dicyclohexyl urea]
- Fully Soluble in AGNIQUE AMD10? (2% w/w urea derivative) [3, 5]: No

Structure (SMILES): CCCCCCCCCCCCN1CCCC1=O [1-Dodecyl-2-pyrrolidone, 1-dodecyl-2-pyrrolidone]
- solubility [4]: < 2000 µg/mL

Structure (SMILES): O=C(NCO)NCO [N,N′-bis(hydroxymethyl) urea]
- Fully Soluble in AGNIQUE AMD10? (2% w/w urea derivative) [3]: No
- solubility in AGNIQUE AMD10 [3]: < 2 % w/w

Further lines, results first:

- Emulsion with ATLOX 4991 stable? (4 wks ambient) [2]: Yes
- Fully Soluble in AGNIQUE AMD10? (2% w/w urea derivative) [3]: Yes
Structure (SMILES): CCNC(=O)NCC [1,3-diethylurea]

- Water solubility (OECD 105) [4]: 574 µg/mL
- solubility [4]: < 1000 µg/mL
Structure (SMILES): CCCCCCCCCC(=O)N(C)C [AGNIQUE ® AMD10, Capric acid dimethylamide]

- DPU Solubility comments [1]: Effectively insoluble
Structure (SMILES): CCCCCCCC(=O)OC [AGNIQUE ® ME890, Methyl octanoate]

- solubility [4]: < 2000 µg/mL
Structure (SMILES): CCCCCCCCN1CCCC1=O [N-octylpyrrolidone]

- DPU Solubility comments [1]: Effectively insoluble
Structure (SMILES): CCCCOC(=O)CCCCC(=O)OCCCC [CETIOL ® B, Dibutyladipate]

- Emulsion with ATLOX 4991 stable? (4 wks ambient) [2]: Yes
- Fully Soluble in AGNIQUE AMD10? (2% w/w urea derivative) [3]: Yes
Structure (SMILES): CCCCNC(=S)NCCCC [N,N′-dibutylthiourea]
